Entries after “also recorded” stand apart in the source; their conditions may differ. Where two headings read alike, the source gives them in different places.
Assays:
[1] = test system: brain-derived VP1/VLP-specific T cell clones; experiment: Fine specificity of brain-derived VP1/VLP-specific T cell clones (TCC); format: cell-based, human; conditions: for recognition by brain-derived VP1-specific TCC: each TCC tested against 64 15-mer peptides spanning VP1
Procedure: 2.5×10^4 brain-derived PHA-expanded cells were seeded in 96-well U-botton microtiter plates with 1×10^5 autologous irradiated PBMC with or without VP1/VLP protein. After 48 hours of culture, plates were split into mother and daughter plates. Proliferation was measured in daughter plates by methyl-^3H-thymidine incorporation. VP1/VLP-responsive cultures were identified in mother plates, and IL-2 was added every 3-4 days until day 12. T cell clones (TCC) were established from positive cultures by seeding cells from VP1/VLP-responsive wells under limiting dilution conditions at 0.3 and 1 cell/well in 96-well U-botton microtiter plates, and addition of 2×10^5 allogeneic, irradiated PBMC and 1 μg/ml of PHA-L in complete RPMI. After 24 h, 20 U/ml of human recombinant IL-2 were added. VP1/VLP specificity was then confirmed seeding 2.5×10^4 cells from growing colonies with autologous irradiated PBMC with or without VP1/VLP protein for 72 h. Specific cultures were restimulated every two weeks with 1 μg/ml PHA-L, 20 U/ml hrIL-2 and allogeneic irradiated PBMC, and hrIL2 was added every 3-4 days.
Prior data had shown that CD4+ differentiate into certain T helper phenotypes such as Th1 cells (IFN-gamma producers), Th17 cells secreting IL-17, Th2 cells expressing the signature cytokine IL-4, or T regulatory cells based on the expression of certain transcription factors (Zhu et al., 2010). The differentiation into Th1 or Th2 cells is considered mutually exclusive and controlled by the transcription factors T-bet (Th1) and Gata-3 (Th2) (Zhu et al., 2010). […] VP1/VLP-specific TCC were generated as described in material and methods. Initially 21 VP1/VLP-specific single cell-derived cultures were generated by limiting dilution and characterized for TCRV beta expression, functional phenotype and fine specificity (Table 2). This characterization allowed the identification of 11 presumed different TCC. The number of single cell growing cultures corresponding to each TCC gives an idea about the frequency of each TCC in the brain infiltrate (FIG. 3a). TCC-4 was most abundant and represented by 5 colonies emerging from single growing wells, followed by TCC-2 with 3 single cell growing cultures, TCC-1, -8, -9 and -10 with 2 single cell growing cultures and finally TCC-3, -5, -6, -7 and -11 with only 1 single cell growing culture. […] Taking into account both the number of different TCC recognizing a specific peptide and the frequency of each TCC in the brain infiltrate the immunodominant peptides recognized by VP1 specific brain infiltrating TCC were VP134, VP174, VP1319 and VP1335 confirming the fine specificity obtained using the brain-derived bulk cell population (FIG. 3c). […] For three of the immunodominant peptides (VP134, VP1319 and VP1335) we found TCC with both phenotypes. The T helper phenotype of Th1-2 and Th1 TCC was confirmed my measuring IL-4 and IFN-gamma protein secretion by ELISA and by determining the expression of mRNAs of the transcription factors Gata3 and T-bet. Th1-2 TCC (n=5) secreted IL-4 in addition to IFN-gamma, while IL-4 secretion was barely detectable in Th1 TCC (n=6) (FIG. 6c). Cytokine secretion profiles were not due to stimulation with PHA, since the same stable patterns were observed after specific stimulation with VP1/VLP protein by intracellular cytokine staining or ELISA measurements from culture supernatants. Transcription factor expression confirmed the phenotype of the TCC. […]

[2] = test system: brain-derived PHA-expanded cells; format: cell-based, human
[3] = test system: CSF-derived PHA-expanded cells; format: cell-based, human
[4] = test system: peripheral blood-derived PHA-expanded cells; format: cell-based, human
[5] = test system: JCV; experiment: Individual healing attempt: therapeutic vaccination of PML patients with VP1, imiquimod and IL-7; format: in vivo, human; conditions: patient with idiopathic CD4+ lymphopenia and PML, s.c. VP1 + dermal imiquimod + IL-7
Procedure: An individual healing attempt was performed in a patient with idiopathic CD4+ lymphopenia, a rare constitutive immunodeficiency, who developed PML (referred to as “patient Hamburg” in FIG. 11). The patient had been healthy, i.e. not experienced unusual or frequent infections, throughout their life, and in February 2010 was hospitalized with signs of an encephalitis of unknown origin. They were thoroughly worked up, and a diagnosis of suspected EBV-related encephalitis was made. Following transient improvement during antiviral therapy, they deteriorated further albeit slowly. […] In parallel, the inventors found a low CD4+ T cell count (around 300/microliter) as well as a CD4+/CD8+ ratio of 0.5 or less, which are both consistent with the diagnosis of idiopathic CD4+ lymphopenia. In addition, in vitro experiments in the laboratory documented an absent T cell response to JCV virus VP1 in peripheral blood mononuclear cells and an almost complete absence of naïve CD4+ T cells. Following these observations, the inventors reasoned that the patient probably had developed PML based on a pre-existing and probably genetically determined low CD4+ number, which became further accentuated by entirely physiological immune involution, which sets in and increases above 50 years of age.
The vaccination approach in the above patient included the following steps (for timing of vaccinations and tests see scheme below): Subcutaneous injection with the entire recombinant major capsid protein VP1 (provided by the Life Science Inkubator, Bonn) in combination with a dermally applied TLR7 agonist (imiqimod, Aldara; commercially available) and i.v. recombinant IL-7 (Cytheris). The VP1 protein was administered in the form of virus-like particles (VLP), as the recombinantly expressed VP1 protein associated to such particles under the conditions used herein.
Another individual healing attempt was performed in a patient with breast cancer who received chemotherapy and developed acute myeloid leukaemia (AML) as a side effect of the chemotherapy. The patient then received an autologous and allogeneic hematopoietic stem cell transplant as treatment of the AML and subsequently developed acute graft-versus-host disease (grade IV). […] This case is referred to as “patient Zurich” in FIG. 11. Both patients were treated by recombinant IL-7 (s.c.). 2 days later, the first dose of VP1 (s.c. 1 mg, imiquimod cream on the skin) was administered. 2 days after the first dose of VP1, the second dose of rIL-7 was given.
On day 12 after the first IL-7 dose, the patients received a second vaccination with VP1 s.c. plus imiquimod, and in this case simultaneously rIL-7. At week 6, a third dose of VP1/imiquimod and a fourth dose of rIL-7 were administered. […] A stimulation index of >2 is considered a positive response.

[6] = test system: peripheral blood mononuclear cells (PBMC); experiment: 3H-thymidine incorporation assay of patient PBMC with VP1; format: cell-based, human
[7] = test system: VP1-specific T-cells; experiment: Flow cytometry characterization of VP1-specific T cells of the vaccinated patient; format: cell-based, human
[8] = test system: JCV; conditions: cited from earlier work
[9] = test system: brain-derived PHA-expanded cells; experiment: Determination of precursor frequency by limiting dilution; format: cell-based, human; conditions: fraction of T cells responding
Procedure: Frequencies of VP1/VLP-specific cells were determined by limiting dilution. 20, 200, 2.000 or 20.000 brain-derived PHA-expanded cells were seeded in quadruplicates in 96-well U-botton microtiter plates with 1×10^5 autologous irradiated PBMC with or without VP1/VLP protein. After 72 hours, proliferation was measured by methyl-^3H-thymidine incorporation. Frequencies were calculated as previously described (Taswell, 1981). Observed data were: r, the number of negatively responding cultures or wells of each dose i; n, the total number of wells per dose i, and X, the number of cells in the dose i. Calculated data was: pi=ri/ni, the fraction of negatively responding cultures of each dose i. The frequency was calculated using the following formula: f=−(ln pi)/λi.

[10] = test system: unmanipulated PBMC; format: cell-based, human
[11] = recombinant IL-7 together with antiviral drugs, case of CD4+ lymphopenia; cited from earlier work

VP191: 15-mer VP1 peptide starting at amino acid 91; likely peptide 31, SEQ ID NO 11 (LNEDLTCGNILMWEA; JC virus)
recognition by brain-derived VP1-specific TCC [1]: recognized by TCC-5

20: 15-mer VP1 peptide starting at amino acid 34; likely SEQ ID NO 2 (image row of Table 1) (VDSITEVECFLTPEM; JC virus) [Peptide 20]
stimulation index (SI), individual JCV peptides ([2]; brain-derived PHA-expanded cells, individual peptides at 10 μM, 72 hours, listed as VP134): strongest response
immunodominance among VP1 specific brain infiltrating TCC ([1]; by number of TCC recognizing the peptide and frequency of each TCC): immunodominant
recognition by brain-derived VP1-specific TCC [1]: recognized by TCC-1 and -2

VP1/VLP: recombinant JCV major capsid protein VP1 forming virus-like particles; VP1 and VLP used interchangeably
stimulation index (SI) ([2]; brain-derived PHA-expanded T cells, VP1/VLP 2 μg/ml, TTx 5 μg/ml, 72 hours): > 600
stimulation index (SI) ([3]; CSF-derived PHA-expanded cells, VP1/VLP 2 μg/ml, TTx 5 μg/ml, 72 hours): 7
stimulation index (SI) ([4]; PHA-expanded PBMC, VP1/VLP 2 μg/ml, TTx 5 μg/ml, 72 hours): negative
CSF cell counts after vaccination [5]: slightly elevated CSF cell counts
JCV viral load after vaccination [5]: 0
brain MRI imaging after vaccination ([5]; listed as VP1): slight contrast enhancement around the PML lesions
clinical course after vaccination ([5]; listed as VP1): clinical improvement with slight delay; also recorded: clinically improving
immune response against JCV after vaccination (stimulation index, >2 positive) ([6]; patient Hamburg and patient Zurich, PBMC 1×10e5 cells/well with VP1/VLP, 7 days, VP1 s.c. 1 mg + imiquimod + rIL-7): positive immune response against JCV
T cell response to JCV VP1 in PBMC before vaccination ([6]; patient with idiopathic CD4+ lymphopenia and PML, before vaccination): absent
in vitro proliferative response against JCV VP1 after vaccination ([6]; patient with idiopathic CD4+ lymphopenia and PML, s.c. VP1 + dermal imiquimod + IL-7): in vitro proliferative response against JCV VP1 after only two vaccinations
cell type proliferating after VP1 stimulus ([7]; 6 weeks after immunization): Only CD4+ cells proliferate
cytokine expression of CD4+ T cells after VP1 stimulation ([7]; antigen day 0, restimulated day 6, intracellular cytokine staining, FACS): produce IFN-gamma after VP1 stimulation
immune response after vaccination with Freund's Complete Adjuvant (FCA) ([8]; with FCA): induces an immune response
immune response after vaccination without adjuvant ([8]; without adjuvant): not immunogenic

VP1143: 15-mer VP1 peptide starting at amino acid 143; likely peptide 43, SEQ ID NO 23 (HFFSVGGEALELQGV; JC virus)
recognition by brain-derived VP1-specific TCC [1]: recognized by TCC-6

4: 15-mer JCV Agno peptide starting at amino acid 25; likely SEQ ID NO 1 (image row of Table 1) (AQRILIFLLEFLLDF; JC virus) [Peptide 4]
precursor frequency of peptide-specific T cells [9]: 1/14492

23: 15-mer VP1 peptide starting at amino acid 54; likely SEQ ID NO 3 (image row of Table 1) [Peptide 23]
recognition by brain-derived VP1-specific TCC [1]: recognized by TCC-3

Tetanus toxoid [TTx, reference compound]
stimulation index (SI) [2]: no response
stimulation index (SI) [3]: 14
stimulation index (SI) [4]: 6.5
proliferative response [10]: significantly stronger response

B1: recombinant IL-7: recombinant IL-7 (Cytheris) (protein, UniProt P13232 26-177, looked up)
Interleukin-7: DCDIEGKDGKQYESVLMVSIDQLLDSMKEIGSNCLNNEFNFFKRHICDANKEGMFLFRAARKLRQFLKMNSTGDFDLHLLKVSEGTTILLNCTGQVKGRKPAALGEAQPTKSLEENKSLKEQKKLNDLCFLKRLLQEIKTCWNKILMGTKEH
clinical outcome [11]: substantial improvement

From patent publication US9738690B2, “Polyoma virus JC peptides and proteins in vaccination and diagnostic applications” (UNIVERSITAET ZUERICH, priority 2011, dated 2017)
